Experiment in all cases: ABPP selectivity across brain serine hydrolases – biochemical, gel-based competitive ABPP, mouse brain membrane, set 1, selectivity assay for DAGLb inhibitor project, late-stage follow-up (AID 602311)
The subject of one experiment is ABHD12. Particulars: gel-based competitive ABPP fluorescence, at 10 µM, stronger effect = higher value.
Another experiment relates to APEH. To be noted: gel-based competitive ABPP fluorescence, at 10 µM, stronger effect = higher value.
For experiment [1], the target named is Acyl-protein thioesterase 1 (Mus musculus) (UniProt P97823). To be noted: gel-based competitive ABPP fluorescence, LYPLA1, at 10 µM, stronger effect = higher value.
The next experiment deals with FAAH. To be noted: gel-based competitive ABPP fluorescence, at 10 µM, stronger effect = higher value.
In another experiment the test system is KIAA1363. Particulars: gel-based competitive ABPP fluorescence, at 10 µM, stronger effect = higher value.
For a further experiment, the system named is LYPLA2. To be noted: gel-based competitive ABPP fluorescence, at 10 µM, stronger effect = higher value.
A further experiment has as its system MAGL. Particulars: gel-based competitive ABPP fluorescence, at 10 µM, stronger effect = higher value.
For experiment [2], the target named is Monoacylglycerol lipase ABHD6 (Mus musculus) (UniProt Q8R2Y0). Particulars: gel-based competitive ABPP fluorescence, at 10 µM, stronger effect = higher value.

Calls of active or inactive are those of the source. The rule behind the calls is not given here.

Acyl-protein thioesterase 1 (Mus musculus), sequence (P97823 whole entry, looked up): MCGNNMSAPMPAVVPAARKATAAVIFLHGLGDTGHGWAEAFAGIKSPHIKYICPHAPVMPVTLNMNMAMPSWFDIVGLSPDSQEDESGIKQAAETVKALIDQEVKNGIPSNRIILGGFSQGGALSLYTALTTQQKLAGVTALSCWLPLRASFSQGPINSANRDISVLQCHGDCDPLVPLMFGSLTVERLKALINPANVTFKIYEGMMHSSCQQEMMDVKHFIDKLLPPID
Monoacylglycerol lipase ABHD6 (Mus musculus), sequence (Q8R2Y0 whole entry, looked up): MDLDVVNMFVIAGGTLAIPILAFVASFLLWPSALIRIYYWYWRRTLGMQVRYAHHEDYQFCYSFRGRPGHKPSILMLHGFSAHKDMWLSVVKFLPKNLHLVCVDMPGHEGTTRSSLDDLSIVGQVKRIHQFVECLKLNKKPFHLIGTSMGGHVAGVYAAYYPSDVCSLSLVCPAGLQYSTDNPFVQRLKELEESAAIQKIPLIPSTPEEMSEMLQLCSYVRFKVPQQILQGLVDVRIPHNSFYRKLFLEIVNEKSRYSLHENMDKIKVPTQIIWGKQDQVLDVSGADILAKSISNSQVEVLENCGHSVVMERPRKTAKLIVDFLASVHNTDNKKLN

The term inhibition denotes how much of the control response was suppressed. `O=C(N1CCCCC1Cc1ccccc1)n1cc(-c2ccc(-c3ccoc3)cc2)nn1` (stereo not given): the inhibition was 0% (inactive) in the experiment on ABHD12; 0% (inactive) in the experiment with APEH; 0% (inactive) in experiment [1]; 40% (inactive) in the experiment with FAAH; 0% (inactive) in the experiment with KIAA1363; 0% (inactive) in the experiment with LYPLA2. The inhibition with MAGL was 10% (inactive); in experiment [2], 98%.
For `O=C(N1CCCCC1Cc1ccccc1)n1cc(-c2ccc(-c3ccccc3C(F)(F)F)cc2)nn1` (stereo not given), the inhibition in the experiment with ABHD12 is 0% (inactive); with APEH, 0% (inactive); in experiment [1] it was 0% (inactive); in the experiment with FAAH it was 40% (inactive); with KIAA1363 it was 0% (inactive); with LYPLA2 it was 0% (inactive). The values for the inhibition (in the experiment on MAGL; in experiment [2]) were 1% (inactive) and 80%, respectively.
Turning to `O=C(c1ccc(-c2cn(C(=O)N3CCCCC3Cc3ccccc3)nn2)cc1)N1CCCCC1` (stereo not given), the inhibition was 0% (inactive) in the experiment with ABHD12; 0% (inactive) in the experiment on APEH; 25% (inactive) in experiment [1]; 55% in the experiment with FAAH; 0% (inactive) in the experiment on KIAA1363; 25% (inactive) in the experiment on LYPLA2. For the same compound, the inhibition in the experiment with MAGL was 0% (inactive); in experiment [2] it was 98%.
As to `O=C(N1CCCCC1Cc1ccccc1)n1cc(-c2cc(F)cc(F)c2)nn1` (stereo not given), the inhibition in the experiment on ABHD12 was 0% (inactive); in the experiment on APEH, 0% (inactive); in experiment [1], 50%; with FAAH it was 98%; in the experiment on KIAA1363, 85%; with LYPLA2 it was 50%. Further, the inhibition is 95% with MAGL and 90% in experiment [2].
For `Cc1ccccc1-c1ccc(-c2cn(C(=O)N3CCCCC3Cc3ccccc3)nn2)cc1` (stereo not given), the inhibition in the experiment on ABHD12 is 0% (inactive); with APEH, 0% (inactive); in experiment [1] it was 0% (inactive); with FAAH it was 30% (inactive); in the experiment with KIAA1363 it was 0% (inactive); with LYPLA2, 0% (inactive). Besides, the figures for the inhibition (with MAGL; in experiment [2]) were 0% (inactive) and 98%, respectively.
